Source: patent US20100203123A1, “METHODS FOR IMPROVING COGNITIVE FUNCTION AND DECREASING HEART RATE” (MARTEK BIOSCIENCES CORPORATION, priority 2009, published 2010)
Entries after “also recorded” stand apart in the source; their conditions may differ.

Key:
Format in all cases: in vivo, human
[1] = test system: healthy elderly subjects with a mild memory complaint; assay: CANTAB Paired Associate Learning (PAL) test, randomized double-blind placebo-controlled 24 week study
Method: (§1) The effects of DHA (about 900 mg/day) versus placebo was tested to determine whether cognitive measures of memory, attention, and executive function were improved, utilizing the Cambridge Neuropsychological Test Automated Battery (CANTAB) cognitive battery, in healthy elderly subjects with a mild memory complaint. One objective of the study was to determine the effect of DHA administration versus placebo on improving cognitive functions (i.e., working memory, memory retention, attention, processing speed, and executive function) in healthy elderly with a subjective memory complaint. Another objective of the study included determining the effects of DHA on visual acuity, levels of plasma phospholipids, and evaluating the safety and tolerability of the DHA dose administered.
The study was a randomized, double-blind, placebo-controlled, parallel, multi-center design study to evaluate the effects of an oral dose of DHA on cognitive functions in healthy elderly with a subjective memory complaint. The study consisted of a screening/baseline period, and a 24 week treatment period.
(§2) The DHA group was provided 800 mg soft-gelatin capsules, each containing about 300 mg DHA as a triglyceride from algal oil (DHASCO®-S oil, 40% DHA). In addition to 40% DHA, DHASCO®-S oil was formulated to contain 40-60% saturated, mono- and polyunsaturated fatty acids, 400 ppm ascorbyl palmitate, 2000 ppm mixed tocopherols, 2000 ppm rosemary extract, 3% orange-flavoring, and 1% natural masking agent. Subjects were instructed to take three 800 mg capsules/day, i.e., about 900 mg DHA/day.
Pre-baseline testing with the CANTAB occurred to serve as a training session and to familiarize the subject with the computer system. Morris R, et al., Computer Aided Assessment of Dementia: Comparative Studies of Neuropsychological Deficits in Alzheimer Type Dementia and Parkinson's Disease (1987). Seven (+/−2) days following this pre-baseline testing, baseline measurements were taken, including baseline laboratory measures, vital signs, and the CANTAB cognitive battery. At the baseline session, subjects were stratified based on age (55-69; ≧70) and randomly assigned to receive about 900 mg DHA, or placebo. Capsules, either DHA or placebo, as randomly assigned, was given to each subject at the end of the baseline visit. Subjects were instructed to take 3 capsules everyday for the ensuing 24 weeks and were supplied initially with 3 months' worth of capsules. At the end of 4 weeks, subjects returned to the site for compliance and safety assessments. Subjects returned to the site at 12 weeks for safety and efficacy assessments and were re-supplied with the final 3 months' worth of capsules. Subjects returned to the site at 24 weeks for the “end of study” efficacy and safety assessments. Compliance was assessed by food frequency questionnaires, returned capsule counts, and by plasma DHA levels (taken at 24 weeks). The CANTAB cognitive battery consists of tests of memory, learning, attention, problem-solving, and executive function (i.e., planning and organizational skills). See e.g., Fowler et al., Applied Neuropsychology 2:72-78 (1995); Robbins et al., Dementia 5:266-281 (1994); and De Luca et al., J Clinical and Experimental Neuropsychology 25:242-254 (2003).
A primary efficacy endpoint of the CANTAB test score on the Paired Associate Learning (PAL) test at 24 weeks of treatment was used as the primary efficacy outcome. The primary analysis was adjusted for baseline scores, education, site, and the stratification factor of age. Secondary analyses were based on the model above with the addition of the factor, concomitant statin medication use. The PAL subtest of the CANTAB is a test of visuospatial cued recall memory that detects changes in episodic memory. See e.g., de Jager et al., Psychological Medicine 32:483-491 (2002). […]

[2] = test system: healthy elderly subjects with a mild memory complaint; assay: CANTAB Verbal Recognition Memory (VRM) test
Method: as §1, §2
(§3) The secondary efficacy endpoints included: • CANTAB tests of executive function and planning: Spatial Working Memory […] and Stockings of Cambridge (SOC) • CANTAB Verbal Recognition Memory test (VRM) • CANTAB Pattern Recognition test (PRM) • Visual acuity (measured by Snellen Eye chart; corrected vision) • Memory Functioning Questionnaire: Frequency of Forgetting-10 (Self-rating scale) • Activities of Daily Living (ADCS-ADL PI) scale (Self-rating) • Clinical measures of cognitive function and computerized assessments were administered by (CANTAB) certified examiners at each site blinded to the subject's treatment. • Description of CANTAB Battery of tests
Additional tests are included in CANTABeclipse and are available in the CANTABelect batteries. […]

[3] = test system: healthy elderly subjects with a mild memory complaint; assay: CANTAB Pattern Recognition Memory (PRM) test; details: about 900 mg/d, 24 weeks
Method: as §1, with “Another objective of the study included determining the effects of DHA on visual acuity, levels of plasma phospholipids, and evaluating the safety and tolerability of the DHA dose administered.” left out
as §3, with “of tests […]” for “of tests”

[4] = test system: healthy elderly subjects with a mild memory complaint; assay: CANTAB Spatial Working Memory (SWM) test; details: about 900 mg/d, 24 weeks
Method: as §1, with “Another objective of the study included determining the effects of DHA on visual acuity, levels of plasma phospholipids, and evaluating the safety and tolerability of the DHA dose administered.” left out
as §3, with “of tests […]” for “of tests”

[5] = test system: healthy elderly subjects with a mild memory complaint; assay: CANTAB Stockings of Cambridge (SOC) test; details: about 900 mg/d, 24 weeks
Method: as §1, with “Another objective of the study included determining the effects of DHA on visual acuity, levels of plasma phospholipids, and evaluating the safety and tolerability of the DHA dose administered.” left out
as §3, with “of tests […]” for “of tests”

[6] = Vital signs (heart rate, blood pressure, body weight); details: about 900 mg/d, 24 weeks
Method: as §1, §2
(§4) Pre-baseline testing with the CANTAB occurred to serve as a training session and to familiarize the subject with the computer system. Morris R, et al., Computer Aided Assessment of Dementia: Comparative Studies of Neuropsychological Deficits in Alzheimer Type Dementia and Parkinson's Disease (1987). Seven (+/−2) days following this pre-baseline testing, baseline measurements were taken, including baseline laboratory measures, vital signs, and the CANTAB cognitive battery. At the baseline session, subjects were stratified based on age (55-69; ≧70) and randomly assigned to receive about 900 mg DHA, or placebo. […] Compliance was assessed by food frequency questionnaires, returned capsule counts, and by plasma DHA levels (taken at 24 weeks). […]

[7] = Plasma phospholipid fatty acid levels
Method: as §2
Blood samples of the subjects were collected at baseline and at the week 24 or “end of study” visit to determine phospholipid levels. Samples were collected into 10 ml vacutainer EDTA tubes, centrifuged at 3000 rpm and plasma was stored at −80° C. until analyzed. Plasma phospholipid fatty acids were analyzed as described previously. See, e.g., Arterburn, L. M., et al., Lipids 42:1011-1024 (2007). The fatty acid profiles were expressed as a percent of the total […] of fatty acid (weight percent).

[8] = test system: healthy elderly subjects with a mild memory complaint; assay: Safety and tolerability of the DHA dose
Method: as §1
as §4, with “battery.” for “battery. At the baseline session, subjects were stratified based on age (55-69; ≧70) and randomly assigned to receive about 900 mg DHA, or placebo.”

[9] = test system: healthy elderly subjects with a mild memory complaint; assay: Mini-Mental State Examination (MMSE); details: 6 month study, not different between groups
Excerpt: (§5) During the Screening Period, subjects were selected on the basis of specific inclusion and exclusion criteria, including a screening Logical Memory sub-test of the Wechsler Memory Scale (WMS III). See e.g., Wechsler, D., Administration and Scoring Manual, 3rd ed. San Antonio, Tex.: Harcourt Brace & Company, 1997. In addition to the Logical Memory sub-test, the Mini-Mental State Examination (MMSE), Geriatric Depression scale, and a test of visual acuity and a DHA Food Frequency Questionnaire were administered to all subjects at screening. See e.g., Folstein et al., Pyschiatr. Res. 12:189-198 (1975); Yesavage J., et al., J Psychiatr. Res. […] (1982). Eligible subjects who meet the screening criteria were given a pre-baseline training session with the computerized cognitive battery, CANTAB.
(§6) Other secondary measures included self-assessment tests of memory (Frequency of Forgetting-10 scale) (Zelinski, E. M. et al., Aging and Mental Health […]), Alzheimer's Disease Cooperative Study-Activities of Daily Living Prevention Instrument (ADCS-ADL PI scale) (Galasko, D., Alzheimer Dis. Assoc. Disord. 20:S152-69 (200)), Mini-Mental State Examination (MMSE) (Folstein et al., Pyschiatr. Res. 12:189-198 (1975) and the Geriatric Depression Scale (Yesavage, J., et al., J Psychiatr. Res. […]).

[10] = test system: healthy elderly subjects with a mild memory complaint; assay: Geriatric Depression Scale; details: 6 month study, not different between groups
Excerpt: as §5, §6

[11] = test system: healthy elderly subjects with a mild memory complaint; assay: ADL (ADCS-ADL PI) and self-assessment of memory (Frequency of Forgetting-10); details: 6 month study
Excerpt: as §3, §6

plasma phospholipid DHA change, diff. score versus placebo ([7]; 24 weeks, p<0.001): 3.15±0.16
plasma phospholipid DPAn-6, mean change ([7]; 24 weeks, placebo −0.004, p<0.001): 0.37 weight %
plasma phospholipid EPA, mean change ([7]; 24 weeks, placebo −0.06, p<0.001): 0.16 weight %
plasma phospholipid arachidonic acid (ARA), mean change from baseline ([7]; 24 weeks, placebo −0.12, p<0.001): −1.37 weight %
plasma phospholipid ARA levels, decrease ([7]; about 900 mg/day, six months): 1.4 weight %
plasma phospholipid DHA, increase from baseline ([7]; week 24, about 900 mg/day, placebo −0.08): 3.2 weight %
plasma phospholipid DHA level after treatment ([7]; week 24, baseline 3.2 weight %, p<0.001): 6.4 weight %
Structure (SMILES): CC/C=C\C/C=C\C/C=C\C/C=C\C/C=C\C/C=C\CCC(=O)O [DHA, (all-Z)-4,7,10,13,16,19-docosahexaenoic acid]
errors made on the PAL 6 pattern stage test, diff. score versus placebo, change from baseline ([1]; about 900 mg/d DHA, six months, ITT analysis, p<0.03): −1.63±0.76
PAL primary endpoint, diff. score versus placebo, compliers analysis ([1]; about 900 mg/d, week 24, 95% CI −3.1, 0.4, p<0.13, not significant): −1.3±0.89
improvement in PAL test performance compared to age-associated normative data ([1]; about 900 mg/day, 6 months, placebo 3.6 year): 7 year
reduction in CANTAB PAL 6 pattern errors compared to the decrease with placebo ([1]; about 900 mg/day, six months): ~2 fold
mean PAL errors after 6 months of DHA supplementation ([1]; baseline 13.4±11.5): 8.8±9.9
normative age corresponding to mean PAL errors after 6 months ([1]; baseline 72.6 years): 65.6 years of age
VRM delayed recognition, change from baseline correct responses, diff. versus placebo ([2]; about 900 mg/d, p<0.02): 0.4±0.18
VRM immediate recognition, change from baseline correct responses, diff. versus placebo ([2]; about 900 mg/d, p<0.02): 0.4±0.17
CANTAB Verbal recognition memory, effect of DHA supplementation ([2]; about 900 mg/day, 6 months): modestly improved
CANTAB Pattern Recognition test responses, DHA versus placebo [3]: not significantly different
Spatial Working Memory (SWM) test responses, DHA versus placebo [4]: not significantly different; also recorded: not found
changes in executive function (SOC) [5]: not found
blood pressure, DHA versus placebo [6]: remained unchanged
body weight, DHA versus placebo [6]: remained unchanged
heart rate, change from baseline ([6]; placebo −1 BPM, p<0.03): −3.2 BPM
treatment-related SAEs ([8]; about 900 mg/d, 24 weeks): no treatment-related SAEs were reported
tolerability ([8]; about 900 mg/day algal DHA, six months): well tolerated
MMSE, global cognitive function [9]: unchanged
Geriatric Depression scale [10]: unchanged
ADL assessment [11]: unaffected by DHA supplementation
self-perceptive memory assessment [11]: unaffected by DHA supplementation
